Measured values taken from patent US10681909B2, “Herbicidal triazoles” (FMC Corporation, priority 2014, dated 2020).

How the values were obtained:
barnyardgrass [1] = experiment: Test A preemergence; format: in vivo, Echinochloa crus-galli; conditions: 0 to 100 scale (0 no effect, 100 complete control)
Source text: (§1) Seeds of plant species selected from barnyardgrass (Echinochloa crus-galli), crabgrass, large (large crabgrass, Digitaria sanguinalis), kochia (Kochia scoparia), ragweed (common ragweed, Ambrosia elatior), foxtail, giant (giant foxtail, Setaria faberii), morningglory (Ipomoea spp.), pigweed (Amaranthus retroflexus), velvetleaf (Abutilon theophrasti), ryegrass, Italian (Italian ryegrass, Lolium multiflorum), wheat (Triticum aestivum), and corn (Zea mays) were planted into a blend of loam soil and sand and treated preemergence with a directed soil spray using test chemicals formulated in a non-phytotoxic solvent mixture which included a surfactant. At the same time, plants selected from these crop and weed species and also blackgrass (Alopecurus myosuroides), and galium (catchweed bedstraw, Galium aparine), were planted in pots containing the same blend of loam soil and sand and treated with postemergence applications of test chemicals formulated in the same manner. Plants ranged in height from 2 to 10 cm and were in the one- to two-leaf stage for the postemergence treatment. […] A dash (-) response means no test result.

kochia [2] = experiment: Test A preemergence; format: in vivo, Kochia scoparia; conditions: 0 to 100 scale (0 no effect, 100 complete control)
Source text: (§2) Seeds of plant species selected from barnyardgrass (Echinochloa crus-galli), crabgrass, large (large crabgrass, Digitaria sanguinalis), kochia (Kochia scoparia), ragweed (common ragweed, Ambrosia elatior), foxtail, giant (giant foxtail, Setaria faberii), morningglory (Ipomoea spp.), pigweed (Amaranthus retroflexus), velvetleaf (Abutilon theophrasti), ryegrass, Italian (Italian ryegrass, Lolium multiflorum), wheat (Triticum aestivum), and corn (Zea mays) were planted into a blend of loam soil and sand and treated preemergence with a directed soil spray using test chemicals formulated in a non-phytotoxic solvent mixture which included a surfactant.
(§3) At the same time, plants selected from these crop and weed species and also blackgrass (Alopecurus myosuroides), and galium (catchweed bedstraw, Galium aparine), were planted in pots containing the same blend of loam soil and sand and treated with postemergence applications of test chemicals formulated in the same manner. Plants ranged in height from 2 to 10 cm and were in the one- to two-leaf stage for the postemergence treatment. Treated plants and untreated controls were maintained in a greenhouse for approximately 10 d, after which time all treated plants were compared to untreated controls and visually evaluated for injury. Plant response ratings, summarized in Table A, are based on a 0 to 100 scale where 0 is no effect and 100 is complete control. A dash (-) response means no test result.

ragweed [3] = experiment: Test A preemergence; format: in vivo, Ambrosia elatior; conditions: 0 to 100 scale (0 no effect, 100 complete control)
Source text: as §2, §3

foxtail, giant [4] = experiment: Test A preemergence; format: in vivo, Setaria faberii; conditions: 0 to 100 scale (0 no effect, 100 complete control)
Source text: as §1

pigweed [5] = experiment: Test A preemergence; format: in vivo, Amaranthus retroflexus; conditions: 0 to 100 scale (0 no effect, 100 complete control)
Source text: as §1

ryegrass, Italian [6] = experiment: Test A preemergence; format: in vivo, Lolium multiflorum; conditions: 0 to 100 scale (0 no effect, 100 complete control)
Source text: as §2, §3

barnyardgrass [7] = experiment: Test A postemergence; format: in vivo, Echinochloa crus-galli; conditions: 0 to 100 scale (0 no effect, 100 complete control), approx. 10 d
Source text: as §1

kochia [8] = experiment: Test A postemergence; format: in vivo, Kochia scoparia; conditions: 0 to 100 scale (0 no effect, 100 complete control), approx. 10 d
Source text: as §2, §3

ragweed [9] = experiment: Test A postemergence; format: in vivo, Ambrosia elatior; conditions: 0 to 100 scale (0 no effect, 100 complete control), approx. 10 d
Source text: as §2, §3

foxtail, giant [10] = experiment: Test A postemergence; format: in vivo, Setaria faberii; conditions: 0 to 100 scale (0 no effect, 100 complete control), approx. 10 d
Source text: as §1

pigweed [11] = experiment: Test A postemergence; format: in vivo, Amaranthus retroflexus; conditions: 0 to 100 scale (0 no effect, 100 complete control), approx. 10 d
Source text: as §1

ryegrass, Italian [12] = experiment: Test A postemergence; format: in vivo, Lolium multiflorum; conditions: 0 to 100 scale (0 no effect, 100 complete control), approx. 10 d
Source text: as §2, §3

wheat = experiment: Test A postemergence; format: in vivo, Triticum aestivum; conditions: 0 to 100 scale (0 no effect, 100 complete control), approx. 10 d
Source text: as §1

corn = experiment: Test A postemergence; format: in vivo, Zea mays; conditions: 0 to 100 scale (0 no effect, 100 complete control), approx. 10 d
Source text: as §1

blackgrass = experiment: Test A postemergence; format: in vivo, Alopecurus myosuroides; conditions: 0 to 100 scale (0 no effect, 100 complete control), approx. 10 d
Source text: as §2, §3

galium = experiment: Test A postemergence; format: in vivo, Galium aparine; conditions: 0 to 100 scale (0 no effect, 100 complete control), approx. 10 d
Source text: as §2, §3

Compound | Plant response rating, Barnyardgrass (barnyardgrass [1]; 31 g ai/ha) | Plant response rating, Barnyardgrass (barnyardgrass [1]; 125 g ai/ha) | Plant response rating, Kochia (kochia [2]; 31 g ai/ha) | Plant response rating, Kochia (kochia [2]; 125 g ai/ha) | Plant response rating, Ragweed (ragweed [3]; 31 g ai/ha) | Plant response rating, Ragweed (ragweed [3]; 125 g ai/ha) | Plant response rating, Foxtail, Giant (foxtail, giant [4]; 31 g ai/ha) | Plant response rating, Foxtail, Giant (foxtail, giant [4]; 125 g ai/ha) | Plant response rating, Pigweed (pigweed [5]; 31 g ai/ha) | Plant response rating, Pigweed (pigweed [5]; 125 g ai/ha) | Plant response rating, Ryegrass, Italian (ryegrass, Italian [6]; 31 g ai/ha) | Plant response rating, Ryegrass, Italian (ryegrass, Italian [6]; 125 g ai/ha) | Plant response rating, Barnyardgrass (barnyardgrass [7]; 31 g ai/ha) | Plant response rating, Barnyardgrass (barnyardgrass [7]; 125 g ai/ha) | Plant response rating, Kochia (kochia [8]; 31 g ai/ha) | Plant response rating, Kochia (kochia [8]; 125 g ai/ha) | Plant response rating, Ragweed (ragweed [9]; 31 g ai/ha) | Plant response rating, Ragweed (ragweed [9]; 125 g ai/ha) | Plant response rating, Foxtail, Giant (foxtail, giant [10]; 31 g ai/ha) | Plant response rating, Foxtail, Giant (foxtail, giant [10]; 125 g ai/ha) | other results
CCc1nc(-c2ccncc2)nn1Cc1ccnc(C(F)(F)F)c1 [Compound 39] | 0 | 0 | 0 | 0 | 0 | 0 | 0 | 30 | 30 | 90 | 0 | 0 | 0 | 10 | 50 | 70 | 20 | 30 | 10 | 20 | Plant response rating, Pigweed (pigweed [11]; 31 g ai/ha): 60; Plant response rating, Pigweed (pigweed [11]; 125 g ai/ha): 70; Plant response rating, Ryegrass, Italian (ryegrass, Italian [12]; 31 g ai/ha): 0; Plant response rating, Ryegrass, Italian (ryegrass, Italian [12]; 125 g ai/ha): 0; Plant response rating, Wheat (wheat; 31 g ai/ha): 0; Plant response rating, Wheat (wheat; 125 g ai/ha): 0; Plant response rating, Corn (corn; 31 g ai/ha): 0; Plant response rating, Corn (corn; 125 g ai/ha): 20; Plant response rating, Blackgrass (blackgrass; 31 g ai/ha): 0; Plant response rating, Blackgrass (blackgrass; 125 g ai/ha): 0; Plant response rating, Galium (galium; 31 g ai/ha): 40; Plant response rating, Galium (galium; 125 g ai/ha): 60
COc1nc(-c2ccc(OC(F)(F)F)cc2)nn1Cc1ccnc(C(F)(F)F)c1 [Compound 40] | 0 | 0 | 0 | 0 | 0 | 0 | 0 | 0 | 0 | 30 | 0 | 0 | 0 | 0 | 0 | 0 | 0 | 0 | 0 | 0 | Plant response rating, Pigweed (pigweed [11]; 31 g ai/ha): 30; Plant response rating, Pigweed (pigweed [11]; 125 g ai/ha): 70; Plant response rating, Ryegrass, Italian (ryegrass, Italian [12]; 31 g ai/ha): 0; Plant response rating, Ryegrass, Italian (ryegrass, Italian [12]; 125 g ai/ha): 0; Plant response rating, Wheat (wheat; 31 g ai/ha): 0; Plant response rating, Wheat (wheat; 125 g ai/ha): 0; Plant response rating, Corn (corn; 31 g ai/ha): 0; Plant response rating, Corn (corn; 125 g ai/ha): 20; Plant response rating, Blackgrass (blackgrass; 31 g ai/ha): 0; Plant response rating, Blackgrass (blackgrass; 125 g ai/ha): 0; Plant response rating, Galium (galium; 31 g ai/ha): 20; Plant response rating, Galium (galium; 125 g ai/ha): 30
CCCOc1nc(-c2ccc(C(F)(F)F)cc2)nn1Cc1ccnc(C(F)(F)F)c1 [Compound 41] | 30 | 40 | 30 | 60 | 20 | 30 | 70 | 90 | 90 | 90 | 20 | 40 | 30 | 40 | 70 | 90 | 50 | 70 | 30 | 50 | Plant response rating, Pigweed (pigweed [11]; 31 g ai/ha): 80; Plant response rating, Pigweed (pigweed [11]; 125 g ai/ha): 90; Plant response rating, Ryegrass, Italian (ryegrass, Italian [12]; 31 g ai/ha): 20; Plant response rating, Ryegrass, Italian (ryegrass, Italian [12]; 125 g ai/ha): 30; Plant response rating, Wheat (wheat; 31 g ai/ha): 0; Plant response rating, Wheat (wheat; 125 g ai/ha): 20; Plant response rating, Corn (corn; 31 g ai/ha): 20; Plant response rating, Corn (corn; 125 g ai/ha): 30; Plant response rating, Blackgrass (blackgrass; 31 g ai/ha): 20; Plant response rating, Blackgrass (blackgrass; 125 g ai/ha): 30; Plant response rating, Galium (galium; 31 g ai/ha): 60; Plant response rating, Galium (galium; 125 g ai/ha): 90
